Assay results taken from PubChem BioAssay AID2060601 (Molecular Pharmacology Branch, DTP, NCI, 2025).

Tested on: 874868-142-R-J2-PDC complex spheroids, growth % test/control
Assay: Anticancer human tumor 874868-142-R-J2-PDC patient-derived head and neck squamous carcinoma cell line growth inhibition [CLK]
Conditions: for IC50: curve of first compound; for viability, T/C: stronger effect = lower value
From the text: A high-throughput screen of multi-cell type tumor spheroids was designed to identify active combinations of […] and targeted small molecules. Complex spheroids include a stromal component modeled by human endothelial cells (HUVEC) and fibroblasts modeled by human mesenchymal stem cells (MSCs). The concentration ranges selected for each drug and investigational agent were based upon clinically achievable concentrations if the clinical Cmax of the agent was known.
Compounds. The drugs and investigational agents: cirtuvivint (SM08502; NSC835563), CC-671 (NSC850746), vemurafenib (NSC761431), tapotoclax (NSC804041), sotorasib (NSC818433), adagrasib (NSC831453), MRTX-1133 (NSC836407), BAY2416964 (NSC825713), copanlisib (NSC816437), inavolisib (NSC800729), abemaciclib (NSC768073), osimertinib (NSC779217), entinostat (NSC756642), eltanexor (KPT-8602, NSC794443), venetoclax (NSC766270), ceralasertib (NSC777638), bortezomib (NSC756655), olaparib (NSC753686), talazoparib (NSC767125), alisertib (NSC759677), peposertib (NSC802822), gemcitabine (NSC613327), 5-fluorouracil (NSC19893), SN-38 (NSC673596), oxaliplatin (NSC266046), paclitaxel (NSC125973), and doxorubicin (NSC123127), were obtained from the National Cancer Institute (NCI) Developmental Therapeutics Program Chemical Repository. The FDA-approved anticancer drug set is available from the Developmental Therapeutics Program at https://dtp.cancer.gov/organization/dscb/obtaining/available plates.htm. […] The stock solutions were prepared in dimethyl sulfoxide (DMSO, Sigma-Aldrich, St. Louis, MO, cat. D2650), except for the platinum complexes which were prepared in saline (Quality Biological, Gaithersburg, MD, cat. 114-055-101), at 800-fold the tested concentration and stored at -70 degrees C prior to their use. All drugs and investigational agents were tested over a range starting from a high concentration at or near the clinical Cmax and decreasing in half-log increments. If the clinical Cmax for an agent had not been determined, the highest concentration tested was 10 microM.
Cell Culture. All cells were maintained in an incubator at 37 degrees C and 5% CO2 with 95% humidity. The PDC lines were cultured according to standard operating procedures established by the NCI PDMR. Briefly, all PDCs were thawed and cultured in Matrigel-coated flasks prepared with a working solution of 1X Ham's F-12 nutrient mix, without supplementation (Invitrogen, Waltham, MA, cat. 11765054), 100 U/mL penicillin-streptomycin (Invitrogen, cat. 15140122), and 2.5% Matrigel (Corning Inc., Corning, NY, cat. 354248) for the first three passages. The 947758-054-R-J2-PDC line was cultured in 6B/Colon 1A media, which includes advanced DMEM/F-12 (Thermo Fisher Scientific, cat. 12634028), 10 mM HEPES (Thermo Fisher Scientific, cat. 15630080), 1X GlutaMAX supplement (Thermo Fisher Scientific, cat. 35050061), 0.1 mg/mL primocin (InvivoGen, cat. ant-pm-2), 10% defined fetal bovine serum, heat inactivated (HyClone Laboratories Inc., cat. SH30070.03HI), 1.25 mM N-Acetyl-L-cysteine (Sigma-Aldrich, cat. A9165), 10 mM nicotinamide (Sigma-Aldrich, cat. N0636), 1X B-27 supplement (Thermo Fisher Scientific, cat. 17504044), 1X N-2 supplement (Thermo Fisher Scientific, cat. 17502048), and 10 microM Y-27632 dihydrochloride (Tocris Bioscience, cat. 1254). The 876862-298-R-J1-PDC was cultured in 6E media, which includes all 6B/Colon 1A media components plus 50% L-WRN conditioned media (ATCC, cat. CRL-3276), 50 ng/mL recombinant human EGF recombinant protein (hEGF; Thermo Fisher Scientific, cat. PHG0311), 10 ng/mL recombinant human fibroblast growth factor 10 (hGFG-10; PeproTech, cat. 100-26), 1 ng/mL recombinant human fibroblast growth factor 2 (hFGF-2; PeproTech, cat. 100-18B), and 1 µM prostaglandin E2 (PGE2; Tocris, cat. 2296). The 227483-062-R1-J1-PDC line was cultured in Panc media, containing all 6E components except hFGF-2, with the addition of 500 nM SB-431542 (Selleckchem, cat. S1067) and 10 nM gastrin (Tocris, cat. 3006). […]

[1] = second compound 0.0316 µM, first compound 0.0316 µM
[2] = second compound 0.0316 µM, first compound 0.1 µM
[3] = second compound 0.0316 µM, first compound 0.316 µM
[4] = second compound 0.0316 µM, first compound 1 µM
[5] = second compound 0.0316 µM, first compound 3.16 µM
[6] = second compound 0.0316 µM, first compound 10 µM
[7] = second compound 0.1 µM, first compound 0.0316 µM
[8] = second compound 0.1 µM, first compound 0.1 µM
[9] = second compound 0.1 µM, first compound 0.316 µM
[10] = second compound 0.1 µM, first compound 1 µM
[11] = second compound 0.1 µM, first compound 3.16 µM
[12] = second compound 0.1 µM, first compound 10 µM
[13] = second compound 0.316 µM, first compound 0.0316 µM
[14] = second compound 0.316 µM, first compound 0.1 µM
[15] = second compound 0.316 µM, first compound 0.316 µM
[16] = second compound 0.316 µM, first compound 1 µM
[17] = second compound 0.316 µM, first compound 3.16 µM
[18] = second compound 0.316 µM, first compound 10 µM
[19] = second compound 1 µM, first compound 0.0316 µM
[20] = second compound 1 µM, first compound 0.1 µM
[21] = second compound 1 µM, first compound 0.316 µM
[22] = second compound 1 µM, first compound 1 µM
[23] = second compound 1 µM, first compound 3.16 µM
[24] = second compound 1 µM, first compound 10 µM
[25] = second compound 3.16 µM, first compound 0.0316 µM
[26] = second compound 3.16 µM, first compound 0.1 µM
[27] = second compound 3.16 µM, first compound 0.316 µM
[28] = second compound 3.16 µM, first compound 1 µM
[29] = second compound 3.16 µM, first compound 3.16 µM
[30] = second compound 3.16 µM, first compound 10 µM
[31] = second compound 10 µM, first compound 0.0316 µM
[32] = second compound 10 µM, first compound 0.1 µM
[33] = second compound 10 µM, first compound 0.316 µM
[34] = second compound 10 µM, first compound 1 µM
[35] = second compound 10 µM, first compound 3.16 µM
[36] = second compound 10 µM, first compound 10 µM
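Also: spheroids exposed to the compounds for 7 days.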

C#Cc1c(F)ccc2cc(O)cc(-c3ncc4c(N5CC6CCC(C5)N6)nc(OCC56CCCN5CC(F)C6)nc4c3F)c12 (centres undefined) + CN1CCN(c2cc(C(=O)Nc3cc4cc(-c5cnn(C)c5)ccc4cn3)ccn2)CC1
IC50 (second compound 0.0316 µM): 8540 nM
IC50 (second compound 0.1 µM): 1410 nM
IC50 (second compound 0.316 µM): < 31.6 nM
IC50 (second compound 1 µM): < 31.6 nM
IC50 (second compound 3.16 µM): < 31.6 nM
IC50 (second compound 10 µM): < 31.6 nM
viability, T/C [1]: 98.2%
viability, T/C [2]: 85.1%
viability, T/C [3]: 76.3%
viability, T/C [4]: 73%
viability, T/C [5]: 49.8%
viability, T/C [6]: 51.2%
viability, T/C [7]: 69.2%
viability, T/C [8]: 74.1%
viability, T/C [9]: 68.8%
viability, T/C [10]: 51.2%
viability, T/C [11]: 41.5%
viability, T/C [12]: 54.2%
viability, T/C [13]: 21%
viability, T/C [14]: 24%
viability, T/C [15]: 17.3%
viability, T/C [16]: 13%
viability, T/C [17]: 15.5%
viability, T/C [18]: 15.4%
viability, T/C [19]: 0.39%
viability, T/C [20]: 0.42%
viability, T/C [21]: 0.39%
viability, T/C [22]: 0.91%
viability, T/C [23]: 0.5%
viability, T/C [24]: 1.33%
viability, T/C [25]: 0.37%
viability, T/C [26]: 2.5%
viability, T/C [27]: 0.31%
viability, T/C [28]: 0.32%
viability, T/C [29]: 0.26%
viability, T/C [30]: 4.54%
viability, T/C [31]: 0.53%
viability, T/C [32]: 1.9%
viability, T/C [33]: 3.6%
viability, T/C [34]: 0.18%
viability, T/C [35]: 0.9%
viability, T/C [36]: 6.16%

C=C(F)C(=O)N1CCN(c2nc(OCC3CCCN3C)nc3c2CCN(c2cccc4cccc(Cl)c24)C3)CC1CC#N (centres undefined) + CN1CCN(c2cc(C(=O)Nc3cc4cc(-c5cnn(C)c5)ccc4cn3)ccn2)CC1
IC50 (second compound 0.0316 µM): 4160 nM
IC50 (second compound 0.1 µM): 2800 nM
IC50 (second compound 0.316 µM): < 31.6 nM
IC50 (second compound 1 µM): < 31.6 nM
IC50 (second compound 3.16 µM): < 31.6 nM
IC50 (second compound 10 µM): < 31.6 nM
viability, T/C [1]: 99.9%
viability, T/C [2]: 85.3%
viability, T/C [3]: 92%
viability, T/C [4]: 93.2%
viability, T/C [5]: 60.8%
viability, T/C [6]: 15.7%
viability, T/C [7]: 69.1%
viability, T/C [8]: 70%
viability, T/C [9]: 75%
viability, T/C [10]: 62%
viability, T/C [11]: 48.8%
viability, T/C [12]: 4.16%
viability, T/C [13]: 16.7%
viability, T/C [14]: 17.8%
viability, T/C [15]: 22.6%
viability, T/C [16]: 16.4%
viability, T/C [17]: 23.8%
viability, T/C [18]: 0.16%
viability, T/C [19]: 0.51%
viability, T/C [20]: 0.57%
viability, T/C [21]: 2.72%
viability, T/C [22]: 0.61%
viability, T/C [23]: 0.21%
viability, T/C [24]: 0.13%
viability, T/C [25]: 0.32%
viability, T/C [26]: 0.27%
viability, T/C [27]: 0.26%
viability, T/C [28]: 0.45%
viability, T/C [29]: 1.88%
viability, T/C [30]: 0.15%
viability, T/C [31]: 0.24%
viability, T/C [32]: 0.24%
viability, T/C [33]: 2.62%
viability, T/C [34]: 0.28%
viability, T/C [35]: 0.53%
viability, T/C [36]: 0.23%
